Reference: ChEMBL document CHEMBL5365500, “Development and Antibacterial Properties of 4-[4-(Anilinomethyl)-3-phenylpyrazol-1-yl]benzoic Acid Derivatives as Fatty Acid Biosynthesis Inhibitors” (J Med Chem, 2023)
In brackets after ≈: the same amount, converted by molar mass.

Columns and labels:
Format in all cases: functional
Conditions in all cases: time 20-24 hrs
Enterococcus faecalis [1] = experiment: Antimicrobial activity against antibiotic-resistant Enterococcus faecalis ATCC 51299 assessed as inhibition of visible growth measured after 20 to 24 hrs incubation by CLSI method
Staphylococcus aureus [2] = experiment: Antimicrobial activity against antibiotic-resistant Staphylococcus aureus ATCC 33591 assessed as inhibition of visible growth measured after 20 to 24 hrs incubation by CLSI method
Enterococcus faecium = experiment: Antimicrobial activity against antibiotic-resistant Enterococcus faecium ATCC 700221 assessed as inhibition of visible growth measured after 20 to 24 hrs incubation by CLSI method
Staphylococcus aureus [3] = experiment: Antimicrobial activity against Staphylococcus aureus ATCC 25923 assessed as inhibition of visible growth measured after 20 to 24 hrs incubation by CLSI method
Staphylococcus aureus [4] = experiment: Antimicrobial activity against antibiotic-resistant Staphylococcus aureus ATCC 33592 assessed as inhibition of visible growth measured after 20 to 24 hrs incubation by CLSI method
[5] = test system: Staphylococcus epidermidis; experiment: Antimicrobial activity against antibiotic-resistant Staphylococcus epidermidis ATCC 700296 assessed as inhibition of visible growth measured after 20 to 24 hrs incubation by CLSI method
Staphylococcus aureus [6] = experiment: Antimicrobial activity against antibiotic-resistant Staphylococcus aureus ATCC BAA-2312 assessed as inhibition of visible growth measured after 20 to 24 hrs incubation by CLSI method
Enterococcus faecalis [7] = experiment: Antimicrobial activity against antibiotic-susceptible Enterococcus faecalis ATCC 29212 assessed as inhibition of visible growth measured after 20 to 24 hrs incubation by CLSI method
Staphylococcus aureus [8] = experiment: Antimicrobial activity against antibiotic-resistant Staphylococcus aureus ATCC 700699 assessed as inhibition of visible growth measured after 20 to 24 hrs incubation by CLSI method
Bacillus subtilis = experiment: Antimicrobial activity against antibiotic-resistant Bacillus subtilis ATCC 6623 assessed as inhibition of visible growth measured after 20 to 24 hrs incubation by CLSI method

SMILES | MIC (Enterococcus faecalis [1]) [µg/mL] | MIC (Staphylococcus aureus [2]) [µg/mL] | MIC (Enterococcus faecium) [µg/mL] | MIC (Staphylococcus aureus [3]) [µg/mL] | MIC (Staphylococcus aureus [4]) [µg/mL] | MIC [5] [µg/mL] | MIC (Staphylococcus aureus [6]) [µg/mL] | MIC (Enterococcus faecalis [7]) [µg/mL] | MIC (Staphylococcus aureus [8]) [µg/mL] | MIC (Bacillus subtilis) [µg/mL]
O=C(O)c1ccc(-n2cc(CNc3cc(Cl)cc(C(F)(F)F)c3)c(-c3ccc(F)cc3)n2)cc1 | 16 (≈ 32.7 µM) | 2 (≈ 4.08 µM) | 4 (≈ 8.17 µM) | 4 (≈ 8.17 µM) | 4 (≈ 8.17 µM) | 8 (≈ 16.3 µM) | 4 (≈ 8.17 µM) | 16 (≈ 32.7 µM) | 2 (≈ 4.08 µM) | 4 (≈ 8.17 µM)
O=C(O)c1ccc(-n2cc(CNc3ccc(F)c(Cl)c3F)c(-c3ccc(F)c(F)c3)n2)cc1 | > 32 | 2 (≈ 4.2 µM) | 4 (≈ 8.41 µM) | 4 (≈ 8.41 µM) | 4 (≈ 8.41 µM) | 8 (≈ 16.8 µM) | 4 (≈ 8.41 µM) | 16 (≈ 33.6 µM) | 4 (≈ 8.41 µM) | 1 (≈ 2.1 µM)
O=C(O)c1ccc(-n2cc(CNc3cccc(Br)c3)c(-c3cccc(F)c3)n2)cc1 | 16 (≈ 34.3 µM) | 2 (≈ 4.29 µM) | 16 (≈ 34.3 µM) | 4 (≈ 8.58 µM) | 8 (≈ 17.2 µM) | 16 (≈ 34.3 µM) | 4 (≈ 8.58 µM) | 16 (≈ 34.3 µM) | 8 (≈ 17.2 µM) | 2 (≈ 4.29 µM)
O=C(O)c1ccc(-n2cc(CNc3ccc(Br)c(C(F)(F)F)c3)c(-c3ccc(F)cc3)n2)cc1 | 4 (≈ 7.49 µM) | 0.5 (≈ 0.936 µM) | 2 (≈ 3.74 µM) | 2 (≈ 3.74 µM) | 2 (≈ 3.74 µM) | 4 (≈ 7.49 µM) | 1 (≈ 1.87 µM) | 4 (≈ 7.49 µM) | 1 (≈ 1.87 µM) | 1 (≈ 1.87 µM)
CC(C)(C)c1ccc(NCc2cn(-c3ccc(C(=O)O)cc3)nc2-c2ccc(F)cc2)cc1 | 8 (≈ 18 µM) | 2 (≈ 4.51 µM) | 4 (≈ 9.02 µM) | 4 (≈ 9.02 µM) | 4 (≈ 9.02 µM) | 8 (≈ 18 µM) | 2 (≈ 4.51 µM) | 8 (≈ 18 µM) | 4 (≈ 9.02 µM) | 2 (≈ 4.51 µM)
O=C(O)c1ccc(-n2cc(CNc3ccc(Br)c(C(F)(F)F)c3)c(-c3ccc(F)c(F)c3)n2)cc1 | 4 (≈ 7.24 µM) | 0.5 (≈ 0.905 µM) | 2 (≈ 3.62 µM) | 0.5 (≈ 0.905 µM) | 0.5 (≈ 0.905 µM) | 4 (≈ 7.24 µM) | 0.5 (≈ 0.905 µM) | 2 (≈ 3.62 µM) | 1 (≈ 1.81 µM) | 1 (≈ 1.81 µM)
O=C(O)c1ccc(-n2cc(CNc3ccc(Br)c(Cl)c3)c(-c3ccc(F)c(F)c3)n2)cc1 | 4 (≈ 7.71 µM) | 0.5 (≈ 0.964 µM) | 4 (≈ 7.71 µM) | 1 (≈ 1.93 µM) | 2 (≈ 3.86 µM) | 2 (≈ 3.86 µM) | 1 (≈ 1.93 µM) | 4 (≈ 7.71 µM) | 2 (≈ 3.86 µM) | 2 (≈ 3.86 µM)
O=C(O)c1ccc(-n2cc(CNc3cc(Br)cc(C(F)(F)F)c3)c(-c3ccc(F)cc3)n2)cc1 | 2 (≈ 3.74 µM) | 0.5 (≈ 0.936 µM) | 2 (≈ 3.74 µM) | 2 (≈ 3.74 µM) | 1 (≈ 1.87 µM) | 4 (≈ 7.49 µM) | 1 (≈ 1.87 µM) | 4 (≈ 7.49 µM) | 1 (≈ 1.87 µM) | 1 (≈ 1.87 µM)
O=C(O)c1ccc(-n2cc(CNc3cc(F)cc(C(F)(F)F)c3)c(-c3ccc(F)c(F)c3)n2)cc1 | 8 (≈ 16.3 µM) | 1 (≈ 2.04 µM) | 4 (≈ 8.14 µM) | 2 (≈ 4.07 µM) | 1 (≈ 2.04 µM) | 4 (≈ 8.14 µM) | 2 (≈ 4.07 µM) | 8 (≈ 16.3 µM) | 2 (≈ 4.07 µM) | 1 (≈ 2.04 µM)
O=C(O)c1ccc(-n2cc(CNc3cc(Cl)c(F)c(Cl)c3)c(-c3ccc(F)cc3)n2)cc1 | 4 (≈ 8.43 µM) | 0.5 (≈ 1.05 µM) | 4 (≈ 8.43 µM) | 1 (≈ 2.11 µM) | 1 (≈ 2.11 µM) | 2 (≈ 4.22 µM) | 1 (≈ 2.11 µM) | 8 (≈ 16.9 µM) | 2 (≈ 4.22 µM) | 1 (≈ 2.11 µM)
O=C(O)c1ccc(-n2cc(CNc3ccc(F)c(F)c3F)c(-c3ccc(F)c(F)c3)n2)cc1 | > 32 | 2 (≈ 4.35 µM) | > 32 | > 32 | > 32 | > 32 | 8 (≈ 17.4 µM) | > 32 | > 32 | 2 (≈ 4.35 µM)
O=C(O)c1ccc(-n2cc(CNc3ccc(Cl)c(C(F)(F)F)c3)c(-c3ccc(F)c(F)c3)n2)cc1 | 4 (≈ 7.88 µM) | 0.5 (≈ 0.985 µM) | 2 (≈ 3.94 µM) | 1 (≈ 1.97 µM) | 2 (≈ 3.94 µM) | 4 (≈ 7.88 µM) | 1 (≈ 1.97 µM) | 4 (≈ 7.88 µM) | 2 (≈ 3.94 µM) | 0.5 (≈ 0.985 µM)
O=C(O)c1ccc(-n2cc(CNc3cccc(OC(F)(F)F)c3)c(-c3ccc(F)c(F)c3)n2)cc1 | 8 (≈ 16.3 µM) | 1 (≈ 2.04 µM) | 4 (≈ 8.17 µM) | 4 (≈ 8.17 µM) | 4 (≈ 8.17 µM) | 8 (≈ 16.3 µM) | 2 (≈ 4.09 µM) | 8 (≈ 16.3 µM) | 4 (≈ 8.17 µM) | 1 (≈ 2.04 µM)
O=C(O)c1ccc(-n2cc(CNc3cccc(Cl)c3)c(-c3ccc(F)cc3)n2)cc1 | 32 (≈ 75.9 µM) | 4 (≈ 9.48 µM) | 32 (≈ 75.9 µM) | 8 (≈ 19 µM) | 16 (≈ 37.9 µM) | 16 (≈ 37.9 µM) | 4 (≈ 9.48 µM) | 32 (≈ 75.9 µM) | 8 (≈ 19 µM) | 4 (≈ 9.48 µM)
O=C(O)c1ccc(-n2cc(CNc3ccc(Cl)c(C(F)(F)F)c3)c(-c3ccc(F)cc3)n2)cc1 | 8 (≈ 16.3 µM) | 1 (≈ 2.04 µM) | 2 (≈ 4.08 µM) | 2 (≈ 4.08 µM) | 2 (≈ 4.08 µM) | 4 (≈ 8.17 µM) | 2 (≈ 4.08 µM) | 8 (≈ 16.3 µM) | 1 (≈ 2.04 µM) | 1 (≈ 2.04 µM)
O=C(O)c1ccc(-n2cc(CNc3cc(C(F)(F)F)cc(C(F)(F)F)c3)c(-c3ccc(F)c(F)c3)n2)cc1 | 2 (≈ 3.69 µM) | 0.5 (≈ 0.924 µM) | 2 (≈ 3.69 µM) | 1 (≈ 1.85 µM) | 1 (≈ 1.85 µM) | 4 (≈ 7.39 µM) | 0.5 (≈ 0.924 µM) | 2 (≈ 3.69 µM) | 1 (≈ 1.85 µM) | 0.5 (≈ 0.924 µM)
O=C(O)c1ccc(-n2cc(CNc3ccc(Oc4ccccc4)cc3)c(-c3ccc(F)cc3)n2)cc1 | 4 (≈ 8.34 µM) | 1 (≈ 2.09 µM) | 4 (≈ 8.34 µM) | 2 (≈ 4.17 µM) | 4 (≈ 8.34 µM) | 4 (≈ 8.34 µM) | 2 (≈ 4.17 µM) | 8 (≈ 16.7 µM) | 2 (≈ 4.17 µM) | 2 (≈ 4.17 µM)
O=C(O)c1ccc(-n2cc(CNc3ccc(F)c(F)c3)c(-c3ccc(F)cc3)n2)cc1 | > 32 | > 32 | > 32 | > 32 | > 32 | > 32 | > 32 | > 32 | 16 (≈ 37.8 µM) | 16 (≈ 37.8 µM)
O=C(O)c1ccc(-n2cc(CNc3ccc(Br)c(Cl)c3)c(-c3cccc(F)c3)n2)cc1 | 4 (≈ 7.99 µM) | 1 (≈ 2 µM) | 4 (≈ 7.99 µM) | – | 1 (≈ 2 µM) | 4 (≈ 7.99 µM) | 1 (≈ 2 µM) | 8 (≈ 16 µM) | 2 (≈ 3.99 µM) | 1 (≈ 2 µM)
O=C(O)c1ccc(-n2cc(CNc3cc(Cl)cc(Cl)c3)c(-c3cccc(F)c3)n2)cc1 | – | 1 (≈ 2.19 µM) | – | 2 (≈ 4.38 µM) | 1 (≈ 2.19 µM) | – | 1 (≈ 2.19 µM) | 8 (≈ 17.5 µM) | 4 (≈ 8.77 µM) | 1 (≈ 2.19 µM)
